Each structure is given as a SMILES string.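 Where inhibition never reached the appropriate level, the endpoint shown equals the highest concentration tested. Otherwise, values were interpolated linearly from a five-concentration, 48-hour dose response in 96-well plates. GI50: concentration for 50% inhibition of growth. TGI: concentration producing complete growth inhibition.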

Test systems include SN12C renal; NCI/ADR-RES ovarian; MALME-3M melanoma; SR leukemia; SK-MEL-28 melanoma; LOX IMVI melanoma; A549 NSCLC; NCI-H522 lung; SK-MEL-5 melanoma; HS 578T breast.
Common to all, as to assay: inhibition of tumour cell growth, NCI panel, 48 h

With `NC(=O)c1cc(Cl)ccc1NC(=O)c1ccccc1-c1ccccc1`, the GI50 is 1.78 µM in the test with SN12C renal; 0.459 µM with NCI/ADR-RES ovarian; 0.62 µM with MALME-3M melanoma; 0.439 µM in the test with SR leukemia; 3.65 µM in the test with SK-MEL-28 melanoma; 0.806 µM in the test with LOX IMVI melanoma. Besides, the GI50 was 1.16 µM with A549 NSCLC, 0.289 µM in the test with NCI-H522 lung, 0.425 µM in the test with SK-MEL-5 melanoma and 1.07 µM with HS 578T breast. For the same compound, the TGI in the test with SN12C renal is over 100 µM; in the test on NCI/ADR-RES ovarian it was 26.4 µM; in the test with MALME-3M melanoma, 62.9 µM; in the test on SR leukemia, 63 µM; in the test on SK-MEL-28 melanoma it was over 100 µM; in the test with LOX IMVI melanoma, 43 µM. Further, the TGI in the test with A549 NSCLC was over 100 µM; in the test with NCI-H522 lung, 0.988 µM; in the test on SK-MEL-5 melanoma, 15.9 µM; in the test with HS 578T breast, over 100 µM.

`C[C@@H](Oc1cc(NS(=O)(=O)N2CCC2)nc(SCc2cccc(F)c2F)n1)[C@@H](O)CO`: the GI50 in the test on SN12C renal, in the test on NCI/ADR-RES ovarian, in the test on MALME-3M melanoma, in the test on SR leukemia, in the test on SK-MEL-28 melanoma and with LOX IMVI melanoma was over 100 µM in each case. Also, the GI50 in the test on A549 NSCLC, with NCI-H522 lung, in the test on SK-MEL-5 melanoma and with HS 578T breast was over 100 µM in each case. Besides, the TGI in the test with SN12C renal, in the test with NCI/ADR-RES ovarian, in the test on MALME-3M melanoma, in the test with SR leukemia, with SK-MEL-28 melanoma and in the test on LOX IMVI melanoma was over 100 µM throughout. Besides, the TGI in the test on A549 NSCLC, with NCI-H522 lung, with SK-MEL-5 melanoma and in the test on HS 578T breast was over 100 µM throughout.

As for `CN(C1=NS(=O)(=O)N=C(N(C)c2ccccc2)O1)c1ccccc1`, the TGI in the test with SN12C renal was found to be 41.2 µM; with NCI/ADR-RES ovarian, 70.8 µM; in the test on MALME-3M melanoma it was 49.7 µM; in the test on SR leukemia, 44.7 µM; in the test with SK-MEL-28 melanoma it was 43.3 µM; in the test with LOX IMVI melanoma it was 27.6 µM. Moreover, the TGI in the test on A549 NSCLC stood at 54.4 µM; in the test with NCI-H522 lung, 46.2 µM; with SK-MEL-5 melanoma it was 25.5 µM; in the test on HS 578T breast it was 69.9 µM.

On to `CCC1CCCCN1C(=S)N/N=C(\C)c1ccccn1` (centres undefined), for which the GI50 is 0.114 µM in the test on SN12C renal; 0.0472 µM with NCI/ADR-RES ovarian; under 0.0325 µM with MALME-3M melanoma; 0.0716 µM in the test with SR leukemia; 0.561 µM in the test on SK-MEL-28 melanoma; under 0.0246 µM with LOX IMVI melanoma. The GI50 in the test on A549 NSCLC is 0.0346 µM; in the test on NCI-H522 lung it was 0.0912 µM; in the test on SK-MEL-5 melanoma it was 0.194 µM; in the test with HS 578T breast, 1.06 µM. Besides, the TGI in the test on SN12C renal is 3.87 µM; in the test on NCI/ADR-RES ovarian, 6.26 µM; in the test on MALME-3M melanoma it was 2.03 µM; in the test on SR leukemia it was over 100 µM; in the test with SK-MEL-28 melanoma it was 4.65 µM; in the test with LOX IMVI melanoma, 3.86 µM. Also, the TGI is 2.94 µM with A549 NSCLC, 1.82 µM in the test with NCI-H522 lung, 1.59 µM in the test with SK-MEL-5 melanoma and 14.5 µM in the test on HS 578T breast.

On to `CN(C)CCCN=c1cc2c(=O)n(CCCN(C)C)c(=O)c3c(NCCCN(C)C)cc4c(O)n(CCCN(C)C)c(=O)c1c4c3-2`, for which the GI50 was 1.73 µM in the test on SN12C renal; 12.3 µM in the test on NCI/ADR-RES ovarian; 1.27 µM with MALME-3M melanoma; 8.39 µM with SR leukemia; 1.96 µM in the test on SK-MEL-28 melanoma; 2.01 µM in the test on LOX IMVI melanoma. The GI50 with A549 NSCLC was 0.525 µM; with NCI-H522 lung it was 0.781 µM; with SK-MEL-5 melanoma, 3.03 µM; in the test with HS 578T breast it was 1.13 µM. Moreover, the TGI with SN12C renal was 30.9 µM; in the test on NCI/ADR-RES ovarian, over 100 µM; in the test on MALME-3M melanoma it was 5.59 µM; with SR leukemia, 56 µM; in the test on SK-MEL-28 melanoma it was 4.79 µM; in the test on LOX IMVI melanoma, 8.36 µM. The TGI with A549 NSCLC came to 2.63 µM; in the test on NCI-H522 lung it was 2.76 µM; with SK-MEL-5 melanoma it was 11.2 µM; in the test with HS 578T breast, 5.03 µM.

For `CC(=O)Nc1ccc2oc(=O)c3ccccc3c2c1`, the TGI with SN12C renal, with NCI/ADR-RES ovarian, with MALME-3M melanoma, in the test on SR leukemia, in the test on SK-MEL-28 melanoma and with LOX IMVI melanoma was over 100 µM throughout. Further, the TGI in the test with A549 NSCLC, in the test on NCI-H522 lung, in the test on SK-MEL-5 melanoma and in the test with HS 578T breast was over 100 µM throughout.

Take `O=C1CCC2=C3C4CCCCC4C(=O)C4CCCC(OC2C1)C34` (centres undefined): the GI50 with SN12C renal is 0.849 µM; in the test on NCI/ADR-RES ovarian, 0.36 µM; in the test with MALME-3M melanoma, 0.418 µM; with SR leukemia, 0.307 µM; with SK-MEL-28 melanoma it was 4.84 µM; with LOX IMVI melanoma, 0.278 µM. Moreover, the GI50 is 2.57 µM with A549 NSCLC, 0.434 µM in the test on NCI-H522 lung, 0.729 µM with SK-MEL-5 melanoma and 1.96 µM with HS 578T breast. Moreover, the TGI with SN12C renal is over 24.7 µM; in the test on NCI/ADR-RES ovarian, 4.06 µM; in the test with MALME-3M melanoma, 1.98 µM; in the test with SR leukemia it was 54.8 µM; in the test on SK-MEL-28 melanoma, over 31.4 µM; in the test with A549 NSCLC it was 13.2 µM. For the same compound, the TGI with NCI-H522 lung was found to be 1.27 µM; with SK-MEL-5 melanoma it was 2.35 µM; with HS 578T breast it was 6.88 µM.

For the compound `C#Cc1cccc(Nc2ncnc3ccc(-c4cnc(Cl)c(NS(C)(=O)=O)c4)cc23)c1`, the GI50 is 0.292 µM in the test on SN12C renal; 1.24 µM with NCI/ADR-RES ovarian; 0.0924 µM with MALME-3M melanoma; 0.338 µM with SR leukemia; 0.182 µM in the test on SK-MEL-28 melanoma; 0.281 µM in the test on LOX IMVI melanoma. Moreover, the GI50 is 0.725 µM in the test on A549 NSCLC, 0.332 µM with NCI-H522 lung, 0.243 µM in the test on SK-MEL-5 melanoma and 0.0815 µM in the test on HS 578T breast. Moreover, the TGI in the test on SN12C renal is over 54 µM; in the test on NCI/ADR-RES ovarian, 10 µM; in the test with MALME-3M melanoma, 0.862 µM; in the test with SR leukemia it was 6.35 µM; in the test on SK-MEL-28 melanoma, 1.93 µM; in the test with LOX IMVI melanoma it was 1.8 µM. Moreover, the TGI with A549 NSCLC stood at 4.83 µM; with NCI-H522 lung it was 4.33 µM; in the test with SK-MEL-5 melanoma it was 0.704 µM; in the test on HS 578T breast it was 0.754 µM.
